We go through 9 compounds from PubChem BioAssay (NCI).

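Method: 48-hour compound exposure of cells in 96-well plates, five concentrations, linear interpolation of endpoints. GI50 is the concentration that inhibits growth by half. At the TGI there is no net growth.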 Where only a bound is given, the exact number is not on record here.

Common to all, as to assay: growth of human tumour cells (NCI), 48 h
Test [1] relates to A498 renal.
In test [2] the test system is HCT-15 colon.
In test [3] the test system is LOX IMVI melanoma.
Test [4] has as its system MDA-MB-231 breast.
Test [5] has as its system NCI-H226 lung.
Test [6] relates to NCI-H522 lung.
Test [7] deals with OVCAR-5 ovarian.
The subject of test [8] is OVCAR-8 ovarian.
Test [9] concerns TK-10 renal.
For test [10], the system named is MOLT-4 leukemia.

With `CCN(CC)CCNC(=O)c1cn2ncnc(Oc3ccc(NC(=O)Nc4ccc(Cl)c(C(F)(F)F)c4)c(F)c3)c2c1C`, the GI50 is 1.84 µM in [1]; 1.46 µM in [2]; 1.3 µM in test [3]; 1.63 µM in test [4]; 2.05 µM in test [5]; 2.03 µM in [6]. For the same compound, the GI50 in [7] is 1.86 µM; in test [8], 1.95 µM; in [9] it was 2.38 µM. In addition, the TGI amounted to 3.28 µM in [1]; 2.89 µM in [2]; 2.62 µM in test [3]; 3.28 µM in test [4]; 4.15 µM in test [5]; 4.13 µM in test [6]. The values for the TGI in [7], in test [8] and in test [9] were 3.33 µM, 3.96 µM and 4.04 µM, respectively.
For `OC(c1ccc(Br)cc1)(c1cccs1)C1CC1` (centres undefined), the TGI was determined as 45.2 µM in test [1]; 65.7 µM in [2]; 42.4 µM in test [3]; 39.6 µM in test [4]; 67 µM in [10]; 40.9 µM in test [6]. Also, the TGI in [7] stood at 70.5 µM; in test [8], 54.1 µM; in test [9] it was 76.4 µM.
Regarding `COc1ccc(-c2nnc(N3CCN(C(=O)CN4CCN(c5ccc(OC)cc5)CC4)CC3)nc2-c2ccc(OC)cc2)cc1`, the GI50 in [1] is 25.8 µM; in test [2] it was 6.96 µM; in test [4], 11.7 µM; in test [10], 1.63 µM; in test [5], 5.53 µM; in test [6], 3.32 µM. In addition, the GI50 in test [7] is 27.6 µM; in test [9], 19 µM. The TGI in test [1] amounted to 50.4 µM; in test [2], 34.6 µM; in test [4] it was 41.2 µM; in test [10], 3.8 µM; in [5], 34.5 µM; in test [6] it was 9.25 µM. Further, the TGI worked out at 53.1 µM in [7] and 62.5 µM in [9].
On to `Cn1cc(-c2csc(-c3cn(C)c4ccccc34)n2)c2cnccc21`, for which the GI50 in test [1] was 2.06 µM; in test [2] it was 1.51 µM; in [4] it was 1.47 µM; in [6], 2 µM; in test [7] it was 1.77 µM; in test [8] it was 2.68 µM. The GI50 in [9] is 2.25 µM. The TGI in test [1] came out at 3.88 µM; in [2], 3.2 µM; in test [4], 2.89 µM; in test [6] it was 3.84 µM; in test [7], 3.25 µM; in test [8], 6.7 µM. In addition, in test [9], the TGI turned out to be 4.18 µM.
Consider `COc1ccc(/C=C2/CCc3cc4ccc(OC)cc4[o+]c32)c(O)c1`, for which the GI50 is 2.25 µM in test [2]; 2.12 µM in test [3]; 3.75 µM in test [4]; 3.71 µM in test [10]; 12.3 µM in test [5]; 12.7 µM in test [6]. Further, the results for the GI50 in test [7], in [8] and in test [9] were 17.2 µM, 2.27 µM and 11.7 µM, respectively. The TGI is 6.03 µM in test [2]; 5.02 µM in test [3]; 18.8 µM in [4]; more than 100 µM in [10]; 25.7 µM in test [5]; 30.5 µM in [6]. Besides, the results for the TGI in [7], in test [8] and in [9] were 40.3 µM, 6.13 µM and 24.6 µM, respectively.
As for `CNC(SC)=C1C(=O)OC(C)(C)OC1=O`, the TGI in test [1] is more than 100 µM; in [2], 40.9 µM; in test [3] it was more than 100 µM; in test [10], more than 100 µM; in test [5], more than 100 µM; in [6], more than 100 µM. For the same compound, the TGI in [7], in test [8] and in test [9] was more than 100 µM in each case.
For the compound `Cn1c(/C(C#N)=C/c2ccc3ccccc3c2)cc2ccccc21`, the GI50 in test [1] was 0.0409 µM; in [2], 0.0934 µM; in test [3], 0.12 µM; in test [4], 0.46 µM; in [10], 0.468 µM; in test [5], 0.662 µM. Also, the GI50 in [7] was 0.411 µM; in test [8] it was 0.421 µM; in test [9] it was more than 100 µM. Further, the TGI is 0.552 µM in test [1]; more than 100 µM in [2]; more than 100 µM in [3]; more than 100 µM in test [4]; more than 100 µM in test [10]; more than 100 µM in test [5]. The TGI in [7], in test [8] and in test [9] was more than 100 µM each time.
For the compound `c1ccc2nc3c(cc4ccccn43)nc2c1`, the GI50 in [1] was 31.4 µM; in test [2] it was 73.4 µM; in test [3] it was 47.1 µM; in [4], 29.8 µM; in test [10] it was 53.1 µM; in [6], 21.5 µM. For the same compound, the GI50 in test [7] is more than 100 µM; in test [8], 34.8 µM; in [9], 8.36 µM. For the same compound, the TGI in [1], in test [2], in [3], in test [4], in test [10] and in [6] was more than 100 µM in each case. Besides, the results for the TGI in test [7], in test [8] and in test [9] were more than 100 µM, more than 100 µM and 55.1 µM, respectively.
Take `C=CCOC(=O)CC[N+]1=CCC(c2ccccc2)(c2ccccc2)O1`: the TGI in test [1], in [2], in test [4], in [10], in test [5] and in test [6] was more than 100 µM each time. The TGI in test [7], in test [8] and in test [9] was more than 100 µM each time.
